Where a SMILES comes first, the peptide text is derived from it. [ ]: non-standard residue; d: D form. The star is where a group is joined. ξ: configuration not given here. Oleoyl = CCCCCCCC/C=C\CCCCCCCC(=O)*; Lauroyl = CCCCCCCCCCCC(=O)*; ξS = NC(CO)C(=O)O
Experiments:
[1] = Foaming power study (foam developed by brush in rotating graduated container); assay type: physicochemical; conditions: 5% aqueous solution (weight/volume), 5 ml with 6 mg natural feminine sebum; for Foam Height (cm) at the end of a time of 60 sec: 60 sec of stirring; for Foam Height (cm) at the end of a time of 120 sec: 120 sec of stirring; for Foam Height (cm) at the end of a time of 180 sec: 180 sec of stirring
Description: The test consists in developing the foam using a brush made of natural hog bristles (length=18 mm) displaced in a plexiglass graduated cylindrical container (inside diameter=35 mm). This container is driven in a uniform circular motion which is the reverse of that described by the brush. This permits a good distribution of the foam in the graduated container despite the small amounts developed. (brush speed =100 rpm, container speed =10 rpm). The procedure is carried out using 5 ml of each solution studied to which has been added 6 mg of natural feminine sebum. The foam heights are recorded after one, two and three minutes of stirring.

[2] = tested on: human stratum corneum previously delipidated; experiment: Hydrating effect on the skin: reduction of water loss of delipidated stratum corneum (evaporimeter); conditions: 3% solution in 2:1 dichloromethane:methanol applied on delipidated human stratum corneum; measured 3 hours after treatment
Description: In this test, the hydrating effect is evaluated by measuring the reduction of water loss of human stratum corneum previously delipidated. The stratum corneum is delipidated for one hour with a 2:1 dichloromethane/methanol mixture.
This test is effected in accordance with a method analogous to that described by J. L. Leveque et coll., J. Soc. Cosmet. Chem., 30, 333-343 (1979).
The following procedures are carried out:
The water flow (g/m^2.H) traversing a sample of stratum corneum placed below a water reservoir is measured. Using an evaporimeter (Servomed, registered mark), the evaporation values before and after treatment are registered, and the eventual reduction of the insensible loss of water is thus determined.
The treatment consists in applying on the sample of stratum corneum […] of a 3% solution in a 2:1 dichloromethane: methanol mixture of the compound being studied. The measurements are carried out 3 hours after this treatment.
On the basis of this test the compound of Example 2 is compared with N-oleoyl-glycyl-glycine (compound B) and with the olvent (2:1 dichloromethane:methanol) alone.

| Foam Height (cm) at the end of a time of 60 sec [1] | Foam Height (cm) at the end of a time of 120 sec [1] | Foam Height (cm) at the end of a time of 180 sec [1] | SMILES | Reduction of the insensible loss of water [2] |
| --- | --- | --- | --- | --- |
| 12.5 cm | 21.25 cm | 28.75 cm | CCCCCCCCCCCC(=O)NCC(=O)NC(CO)C(=O)[O-].[Na+] (centres unmarked) [Ex. 5, Sodium Salt of N-dodecanoyl-glycyl-(D,L) Serine] (Lauroyl-Gly-[ξS]-OH) |  |
| 11.25 cm | 13.75 cm | 20 cm | CCCCCCCCCCCC(=O)NCC(=O)NCC(=O)[O-].[Na+] [compound A, sodium salt of N-dodecanoyl-glycyl-glycine] (Lauroyl-Gly-Gly-OH) |  |
|  |  |  | CCCCCCCC/C=C\CCCCCCCC(=O)NCC(=O)NC(CO)C(=O)O (centres unmarked) [Example 2, N-oleoyl-glycyl-(D,L) Serine] (Oleoyl-Gly-[ξS]-OH) | 32% ± 3 |
|  |  |  | CCCCCCCC/C=C\CCCCCCCC(=O)NCC(=O)NCC(=O)O [compound B, N-oleoyl-glycyl-glycine] (Oleoyl-Gly-Gly-OH) | 6% ± 3 |

Reference: patent US5234909A, “Dipeptidic amides derived from glycyl-serine as surfactants or hydrating agents and cosmetic, pharmaceutical or alimentary compositions containing the same” (L'Oreal, priority 1991, dated 1993)
